The CheMixHub viscosity set
Several values for one entry are separate records, joined by “and”; a condition that tells them apart may be missing. Equal values may be shown once. ± gives the uncertainty stated by the source.

Experiment: xn = mol fraction of the nth substance listed

[Cl-].[Li+] + O
Settings	viscosity
293.15 K, 101 kPa, x1 = 0.17	4.51 ± 0.22 mPa·s
293.15 K, 101 kPa, x1 = 0.19	6.01 ± 0.29 mPa·s
293.15 K, 101 kPa, x1 = 0.2	7.36 ± 0.35 mPa·s
293.15 K, 101 kPa, x1 = 0.22	9.66 ± 0.46 mPa·s
293.15 K, 101 kPa, x1 = 0.23	10.29 ± 0.49 mPa·s
293.15 K, 101 kPa, x1 = 0.24	11.28 ± 0.54 mPa·s and 12.73 ± 0.61 mPa·s
293.15 K, 101 kPa, x1 = 0.25	14.55 ± 0.7 mPa·s
293.15 K, 101 kPa, x1 = 0.26	15.87 ± 0.76 mPa·s
293.15 K, 101 kPa, x1 = 0.27	17.76 ± 0.86 mPa·s
298.15 K, 101 kPa, x1 = 0.26	16.51 ± 0.47 mPa·s
298.15 K, 101.33 kPa, x1 = 0.2626	10.73 ± 0.43 mPa·s
303.15 K, 101 kPa, x1 = 0.17	3.42 ± 0.16 mPa·s
303.15 K, 101 kPa, x1 = 0.19	4.61 ± 0.22 mPa·s
303.15 K, 101 kPa, x1 = 0.2	5.59 ± 0.27 mPa·s
303.15 K, 101 kPa, x1 = 0.22	7.24 ± 0.35 mPa·s
303.15 K, 101 kPa, x1 = 0.23	7.44 ± 0.36 mPa·s
303.15 K, 101 kPa, x1 = 0.24	8.19 ± 0.39 mPa·s and 9.29 ± 0.45 mPa·s
303.15 K, 101 kPa, x1 = 0.25	10.53 ± 0.51 mPa·s
303.15 K, 101 kPa, x1 = 0.26	11.37 ± 0.55 mPa·s
303.15 K, 101 kPa, x1 = 0.27	12.85 ± 0.62 mPa·s
310.15 K, 101 kPa, x1 = 0.000205	0.7179 ± 0.0063 mPa·s
310.15 K, 101 kPa, x1 = 0.00126	0.7026 ± 0.0062 mPa·s
310.15 K, 101 kPa, x1 = 0.001978	0.7036 ± 0.0062 mPa·s
310.15 K, 101 kPa, x1 = 0.002695	0.6772 ± 0.006 mPa·s
310.15 K, 101 kPa, x1 = 0.003679	0.6492 ± 0.0058 mPa·s
310.15 K, 101 kPa, x1 = 0.005197	0.5792 ± 0.0053 mPa·s
310.15 K, 101 kPa, x1 = 0.005988	0.5574 ± 0.0051 mPa·s
313.15 K, 101 kPa, x1 = 0.17	2.73 ± 0.13 mPa·s
313.15 K, 101 kPa, x1 = 0.19	3.59 ± 0.17 mPa·s
313.15 K, 101 kPa, x1 = 0.2	4.32 ± 0.21 mPa·s
313.15 K, 101 kPa, x1 = 0.22	5.44 ± 0.26 mPa·s
313.15 K, 101 kPa, x1 = 0.23	5.67 ± 0.27 mPa·s
313.15 K, 101 kPa, x1 = 0.24	6.36 ± 0.3 mPa·s and 6.96 ± 0.33 mPa·s
313.15 K, 101 kPa, x1 = 0.25	7.83 ± 0.38 mPa·s
313.15 K, 101 kPa, x1 = 0.26	8.46 ± 0.41 mPa·s
313.15 K, 101 kPa, x1 = 0.27	9.36 ± 0.45 mPa·s
323.15 K, 101 kPa, x1 = 0.17	2.26 ± 0.11 mPa·s
323.15 K, 101 kPa, x1 = 0.19	2.94 ± 0.14 mPa·s
323.15 K, 101 kPa, x1 = 0.2	3.49 ± 0.17 mPa·s
323.15 K, 101 kPa, x1 = 0.22	4.37 ± 0.21 mPa·s
323.15 K, 101 kPa, x1 = 0.23	4.48 ± 0.21 mPa·s
323.15 K, 101 kPa, x1 = 0.24	4.99 ± 0.24 mPa·s and 5.38 ± 0.26 mPa·s
323.15 K, 101 kPa, x1 = 0.25	6.06 ± 0.29 mPa·s
323.15 K, 101 kPa, x1 = 0.26	6.55 ± 0.31 mPa·s
323.15 K, 101 kPa, x1 = 0.27	7.22 ± 0.35 mPa·s

C1CC[C@H]2CCCC[C@H]2C1 + O=C1CCCCC1
viscosity [mPa·s], 101.3 kPa
Settings	293.15 K	303.15 K
x2 = 0.05	3.262 ± 0.048	2.558 ± 0.038
x2 = 0.1446	3.118 ± 0.044	2.471 ± 0.035
x2 = 0.2281	3.006 ± 0.041	2.399 ± 0.033
x2 = 0.35	2.863 ± 0.038	2.302 ± 0.031
x2 = 0.4482	2.767 ± 0.035	2.231 ± 0.029
x2 = 0.5559	2.68 ± 0.033	2.159 ± 0.027
x2 = 0.6271	2.634 ± 0.032	2.115 ± 0.026
x2 = 0.7252	2.586 ± 0.031	2.06 ± 0.025
x2 = 0.8051	2.56 ± 0.03	2.019 ± 0.024
x2 = 0.8571	2.549 ± 0.029	1.995 ± 0.023
x2 = 0.9322	2.543 ± 0.029	1.964 ± 0.023

C[N+](C)(C)C[C@H](O)CC(=O)[O-] + O=C1O[C@H]([C@@H](O)CO)C(O)=C1O
Settings	viscosity [mPa·s]
298.15 K, 101.33 kPa, x2 = 0.7	423.5

C[N+](C)(C)C[C@H](O)CC(=O)[O-] + O=C(O)CC(O)(CC(=O)O)C(=O)O
Settings	viscosity [mPa·s]
298.15 K, 101.33 kPa, x2 = 0.4	896.5

CCCC(=O)O + O=[N+]([O-])c1ccccc1
viscosity [mPa·s], 101 kPa
Settings	x2 = 0.1103	x2 = 0.2181	x2 = 0.3235	x2 = 0.4266	x2 = 0.5274	x2 = 0.6259	x2 = 0.7225	x2 = 0.8169	x2 = 0.9094
298.15 K	1.829 ± 0.014	1.83 ± 0.014	1.837 ± 0.014	1.841 ± 0.014	1.837 ± 0.014	1.82 ± 0.014	1.786 ± 0.014	1.732 ± 0.013	1.653 ± 0.013
308.15 K	1.531 ± 0.012	1.564 ± 0.012	1.59 ± 0.012	1.604 ± 0.012	1.603 ± 0.012	1.582 ± 0.012	1.539 ± 0.012	1.473 ± 0.011	1.381 ± 0.011
318.15 K	1.355 ± 0.01	1.458 ± 0.011	1.527 ± 0.012	1.56 ± 0.012	1.559 ± 0.012	1.523 ± 0.012	1.455 ± 0.011	1.354 ± 0.01	1.22 ± 0.0096

COCCO + OCCO
viscosity [mPa·s], 101 kPa
Settings	x2 = 0.1359	x2 = 0.2614	x2 = 0.3776	x2 = 0.4859	x2 = 0.5861	x2 = 0.6799	x2 = 0.7676	x2 = 0.8499	x2 = 0.9272
293.15 K	2.281 ± 0.016	3.192 ± 0.022	3.871 ± 0.026	5.319 ± 0.036	6.607 ± 0.044	8.77 ± 0.057	10.8 ± 0.07	14 ± 0.09	17.35 ± 0.11
298.15 K	2.034 ± 0.014	2.799 ± 0.019	3.383 ± 0.023	4.577 ± 0.031	5.633 ± 0.038	7.281 ± 0.048	9.021 ± 0.059	11.5 ± 0.07	14.18 ± 0.09
303.15 K	1.826 ± 0.013	2.471 ± 0.017	2.981 ± 0.02	3.965 ± 0.027	4.84 ± 0.033	6.282 ± 0.042	7.583 ± 0.05	9.579 ± 0.062	11.66 ± 0.08
308.15 K	1.652 ± 0.011	2.2 ± 0.015	2.644 ± 0.018	3.468 ± 0.024	4.194 ± 0.029	5.372 ± 0.036	6.436 ± 0.043	8.035 ± 0.053	9.727 ± 0.063
313.15 K	1.494 ± 0.01	1.97 ± 0.014	2.364 ± 0.016	3.051 ± 0.021	3.663 ± 0.025	4.643 ± 0.032	5.522 ± 0.038	6.84 ± 0.046	8.193 ± 0.054
318.15 K	1.359 ± 0.01	1.775 ± 0.012	2.14 ± 0.015	2.718 ± 0.019	3.218 ± 0.022	4.04 ± 0.028	4.701 ± 0.032	5.855 ± 0.04	6.98 ± 0.047
323.15 K	1.241 ± 0.009	1.604 ± 0.011	1.938 ± 0.013	2.399 ± 0.017	2.851 ± 0.02	3.547 ± 0.024	4.102 ± 0.028	5.049 ± 0.035	5.979 ± 0.041

CCCC[N+](CCCC)(CCCC)Cc1ccccc1.[Cl-] + OCCOCCO
Settings	viscosity [mPa·s]
293.15 K, 100 kPa, x1 = 0.25	433.5 ± 32

CC(O)=S + c1ccccc1
298.1 K, 101 kPa
Settings	viscosity [mPa·s]
x1 = 0.2	0.584 ± 0.046
x1 = 0.4	0.584 ± 0.046
x1 = 0.5	0.589 ± 0.046
x1 = 0.6	0.599 ± 0.047
x1 = 0.8	0.631 ± 0.049

CCCC(=O)O + c1ccccc1
298.15 K, 101 kPa
Settings	viscosity [mPa·s]
x1 = 0.04	0.612 ± 0.016
x1 = 0.09	0.624 ± 0.017
x1 = 0.14	0.639 ± 0.017
x1 = 0.18	0.656 ± 0.017
x1 = 0.37	0.747 ± 0.02
x1 = 0.47	0.808 ± 0.021
x1 = 0.57	0.903 ± 0.024
x1 = 0.78	1.1 ± 0.029
